{"source": "ChEMBL document CHEMBL6078624", "about": "“Structure-based discovery of a 4,5-Dihydropyrazole-cored PET ligand for imaging of receptor-interacting serine/threonine-protein kinase 1 (RIPK1) in the brain” (Eur J Med Chem, 2024)", "key": {"[1]": {"assay": "Biodistribution in male ICR mouse brain at 0.74 MBq, iv administered into tail vein measured at 10 mins post-injection by automatic gamma counter analysis", "type": "ADME, organism-based", "conditions": "in vivo; call rule not given here"}, "[2]": {"assay": "Biodistribution in male ICR mouse brain at 0.74 MBq, iv administered into tail vein measured at 30 mins post-injection by automatic gamma counter analysis", "type": "ADME, organism-based", "conditions": "in vivo, 0.5 h"}, "[3]": {"assay": "Drug degradation in male mouse brain assessed as parent compound remaining at 26.6 MBq by radio-HPLC analysis", "type": "ADME, tissue-based"}, "[4]": {"assay": "Biodistribution in male ICR mouse heart at 0.74 MBq, iv administered into tail vein by automatic gamma counter analysis", "type": "ADME, organism-based", "conditions": "in vivo"}, "[5]": {"assay": "Biodistribution in male ICR mouse heart at 0.74 MBq, iv administered into tail vein pre-treated with GSK'547 followed by compound addition by automatic gamma counter analysis relative to baseline", "type": "ADME, organism-based", "conditions": "in vivo"}, "[6]": {"assay": "Drug uptake in male mouse cerebellum at 5 microCi/ml incubated for 30 mins by phosphor imager analysis", "type": "ADME, tissue-based", "conditions": "0.5 h"}, "[7]": {"assay": "Biodistribution in male ICR mouse bone at 0.74 MBq, iv administered into tail vein pre-treated with WL8 followed by compound addition by automatic gamma counter analysis relative to baseline", "type": "ADME, organism-based, Bone element", "conditions": "in vivo"}, "[8]": {"assay": "Biodistribution in male ICR mouse bone at 0.74 MBq, iv administered into tail vein measured at 30 mins post-injection by automatic gamma counter analysis", "type": "ADME, organism-based, Bone element", "conditions": "in vivo, 0.5 h"}, "[9]": {"assay": "Biodistribution in male ICR mouse blood at 0.74 MBq, iv administered into tail vein measured at 60 mins post-injection by automatic gamma counter analysis", "type": "ADME, organism-based", "conditions": "in vivo, 1 h"}, "[10]": {"assay": "Biodistribution in male ICR mouse brain at 0.74 MBq, iv administered into tail vein measured at 2 mins post-injection by automatic gamma counter analysis", "type": "ADME, organism-based", "conditions": "in vivo"}, "[11]": {"assay": "Biodistribution in male ICR mouse kidneys at 0.74 MBq, iv administered into tail vein by automatic gamma counter analysis", "type": "ADME, organism-based, Kidney", "conditions": "in vivo"}, "[12]": {"assay": "Biodistribution in male ICR mouse kidney at 0.74 MBq, iv administered into tail vein pre-treated with WL8 followed by compound addition by automatic gamma counter analysis relative to baseline", "type": "ADME, organism-based", "conditions": "in vivo"}, "[13]": {"assay": "Drug uptake in male mouse thalamus at 5 microCi/ml incubated for 30 mins by phosphor imager analysis", "type": "ADME, tissue-based", "conditions": "0.5 h"}, "[14]": {"assay": "Biodistribution in male ICR mouse blood at 0.74 MBq, iv administered into tail vein pre-treated with GSK'547 followed by compound addition by automatic gamma counter analysis", "type": "ADME, organism-based", "conditions": "in vivo"}, "[15]": {"assay": "Biodistribution in male ICR mouse kidney at 0.74 MBq, iv administered into tail vein pre-treated with GSK'547 followed by compound addition by automatic gamma counter analysis relative to baseline", "type": "ADME, organism-based", "conditions": "in vivo"}, "[16]": {"assay": "Biodistribution in male ICR mouse spleen at 0.74 MBq, iv administered into tail vein pre-treated with WL8 followed by compound addition by automatic gamma counter analysis relative to baseline", "type": "ADME, organism-based", "conditions": "in vivo"}, "[17]": {"assay": "Biodistribution in male ICR mouse liver at 0.74 MBq, iv administered into tail vein pre-treated with GSK'547 followed by compound addition by automatic gamma counter analysis relative to baseline", "type": "ADME, organism-based", "conditions": "in vivo"}, "[18]": {"assay": "Biodistribution in male ICR mouse blood at 0.74 MBq, iv administered into tail vein measured at 30 mins post-injection by automatic gamma counter analysis", "type": "ADME, organism-based", "conditions": "in vivo, 0.5 h"}, "[19]": {"assay": "Drug uptake in male mouse midbrain at 5 microCi/ml incubated for 30 mins by phosphor imager analysis", "type": "ADME, tissue-based", "conditions": "0.5 h"}, "[20]": {"assay": "Biodistribution in male ICR mouse heart at 0.74 MBq, iv administered into tail vein pre-treated with WL8 followed by compound addition by automatic gamma counter analysis relative to baseline", "type": "ADME, organism-based", "conditions": "in vivo"}, "[21]": {"assay": "Biodistribution in male ICR mouse blood at 0.74 MBq, iv administered into tail vein measured at 2 mins post-injection by automatic gamma counter analysis", "type": "ADME, organism-based", "conditions": "in vivo"}, "[22]": {"assay": "Biodistribution in male ICR mouse bone at 0.74 MBq, iv administered into tail vein measured at 2 mins post-injection by automatic gamma counter analysis", "type": "ADME, organism-based, Bone element", "conditions": "in vivo"}, "[23]": {"assay": "Biodistribution in male ICR mouse pancreas at 0.74 MBq, iv administered into tail vein pre-treated with WL8 followed by compound addition by automatic gamma counter analysis relative to baseline", "type": "ADME, organism-based", "conditions": "in vivo"}, "[24]": {"assay": "Biodistribution in male ICR mouse brain at 0.74 MBq, iv administered into tail vein pre-treated with WL8 at 2 mg/kg followed by compound addition by automatic gamma counter analysis", "type": "ADME, organism-based", "conditions": "in vivo"}, "[25]": {"assay": "Biodistribution in male ICR mouse liver at 0.74 MBq, iv administered into tail vein pre-treated with WL8 followed by compound addition by automatic gamma counter analysis relative to baseline", "type": "ADME, organism-based", "conditions": "in vivo"}, "[26]": {"assay": "Biodistribution in male ICR mouse pancreas at 0.74 MBq, iv administered into tail vein pre-treated with GSK'547 followed by compound addition by automatic gamma counter analysis relative to baseline", "type": "ADME, organism-based", "conditions": "in vivo"}, "[27]": {"assay": "Drug degradation in male mouse liver assessed as parent compound remaining at 26.6 MBq by radio-HPLC analysis", "type": "ADME, tissue-based"}}, "data": [{"smiles": "Cc1ccc(C2CC=NN2C(=O)C2CCN(C(=O)c3cccc([18F])n3)CC2)cc1F", "note": "(configuration not stated)", "values": [{"measurement": "Drug uptake", "setting": "[1]", "value": 1.34, "unit": "% ID/g"}, {"measurement": "Drug uptake", "setting": "[2]", "value": 0.36, "unit": "% ID/g"}, {"measurement": "Stability", "setting": "[3]", "value": 35.2, "unit": "%"}, {"measurement": "Drug uptake", "setting": "[4]", "value": "> 6.5", "unit": "% ID/g"}, {"measurement": "Drug uptake", "setting": "[5]", "value": "Active"}, {"measurement": "Drug uptake", "setting": "[6]", "value": "Active"}, {"measurement": "Drug uptake", "setting": "[7]", "value": "Not_active"}, {"measurement": "Drug uptake", "setting": "[8]", "value": 7.94, "unit": "% ID/g"}, {"measurement": "Drug uptake", "setting": "[9]", "value": 0.97, "unit": "% ID/g"}, {"measurement": "Drug uptake", "setting": "[10]", "value": 4.8, "unit": "% ID/g"}, {"measurement": "Drug uptake", "setting": "[11]", "value": "> 6.5", "unit": "% ID/g"}, {"measurement": "Drug uptake", "setting": "[12]", "value": "Active"}, {"measurement": "Drug uptake", "setting": "[13]", "value": "Active"}, {"measurement": "Drug uptake", "setting": "[14]", "value": "> 58", "unit": "%"}, {"measurement": "Drug uptake", "setting": "[15]", "value": "Active"}, {"measurement": "Drug uptake", "setting": "[16]", "value": "Active"}, {"measurement": "Drug uptake", "setting": "[17]", "value": "Active"}, {"measurement": "Drug uptake", "setting": "[18]", "value": 2.55, "unit": "% ID/g"}, {"measurement": "Drug uptake", "setting": "[19]", "value": "Active"}, {"measurement": "Drug uptake", "setting": "[20]", "value": "Active"}, {"measurement": "Drug uptake", "setting": "[21]", "value": 4.57, "unit": "% ID/g"}, {"measurement": "Drug uptake", "setting": "[22]", "value": 3.09, "unit": "% ID/g"}, {"measurement": "Drug uptake", "setting": "[23]", "value": "Active"}, {"measurement": "Drug uptake", "setting": "[24]", "value": 58, "unit": "%"}, {"measurement": "Drug uptake", "setting": "[25]", "value": "Active"}, {"measurement": "Drug uptake", "setting": "[26]", "value": "Active"}, {"measurement": "Stability", "setting": "[27]", "value": 13.6, "unit": "%"}]}]}
